Calls of active or inactive are those of the source. No cut-off for these calls is given here.
Experiments:
[1] = target: T1, Nuclear factor erythroid 2-related factor 2 (Mus musculus) (UniProt Q60795); test: Activation of Nrf2 in LPS-stimulated mouse AML12 cells assessed as upregulation of GCLM mRNA expression incubated for 16 hrs by RT-qPCR analysis; type: cell-based; settings: filed as activator, dose 0.5-10 µM
T1 sequence (whole entry): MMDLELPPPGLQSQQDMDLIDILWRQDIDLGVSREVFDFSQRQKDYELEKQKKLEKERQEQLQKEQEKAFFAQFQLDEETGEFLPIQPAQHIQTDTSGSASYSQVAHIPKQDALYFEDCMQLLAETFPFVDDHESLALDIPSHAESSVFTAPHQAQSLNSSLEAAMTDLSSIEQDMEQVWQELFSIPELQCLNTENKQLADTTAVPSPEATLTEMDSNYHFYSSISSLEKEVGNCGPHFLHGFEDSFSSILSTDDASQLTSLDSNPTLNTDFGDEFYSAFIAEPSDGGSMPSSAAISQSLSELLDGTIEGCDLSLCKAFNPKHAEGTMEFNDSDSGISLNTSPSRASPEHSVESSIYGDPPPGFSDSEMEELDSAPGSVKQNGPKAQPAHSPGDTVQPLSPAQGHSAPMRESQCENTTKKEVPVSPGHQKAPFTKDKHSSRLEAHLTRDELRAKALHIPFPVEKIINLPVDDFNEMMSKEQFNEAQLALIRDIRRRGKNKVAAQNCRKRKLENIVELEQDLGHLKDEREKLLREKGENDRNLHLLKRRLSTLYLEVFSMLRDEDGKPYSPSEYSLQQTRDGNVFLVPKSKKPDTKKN

Mus musculus [2] = test: Hepatoprotective activity in APAP-induced Nrf2 knockout male C57BL/6 mouse model of acute liver injury assessed as effect on AST level in liver at 25 mg/kg, ip preadministered with compound followed by APAP induction and measured after 12 hrs; type: functional, organism-based
[3] = target: T1, Nuclear factor erythroid 2-related factor 2 (Mus musculus); test: Activation of Nrf2 in LPS-stimulated mouse AML12 cells assessed as upregulation of Akr1c1 mRNA expression incubated for 16 hrs by RT-qPCR analysis; type: cell-based; settings: filed as activator, dose 0.5-10 µM
[4] = Cmax in Sprague-Dawley rat at 10 mg/kg, po; type: ADME, organism-based; settings: in vivo
Mus musculus [5] = test: Anti-inflammatory activity in APAP-induced C57BL/6 mouse model of acute liver injury assessed as reduction in IL-6 mRNA level in liver at 12.5 to 25 mg/kg, ip measured after 12 hrs by ELISA; type: functional, organism-based; settings: dose 12.5-25 mg/kg
Mus musculus [6] = test: Hepatoprotective activity in APAP-induced male C57BL/6 mouse model of acute liver injury assessed as attenuation of nitric oxide (NO) level in liver at 12.5 to 25 mg/kg, ip measured after 12 hrs; type: functional, organism-based; settings: dose 12.5-25 mg/kg
Mus musculus [7] = test: Anti-inflammatory activity against APAP-induced male C57BL/6 mouse model of acute liver injury assessed as upregulation of HO-1 mRNA level in liver administered intraperitoneally and measured after 12 hrs by RT-qPCR analysis; type: functional, organism-based; settings: dose 12.5-25 mg/kg, route ip
[8] = Drug concentration in plasma of APAP-induced acute liver injury male C57BL/6 mouse model at 12.5 mg/kg, ip pre-administered with compound for 1 hr followed by APAP induction and measured after 12 hrs by Mass spectrometric analysis; type: ADME, organism-based
Mus musculus [9] = test: In vivo induction of Nrf2 nuclear translocation in APAP-induced male C57BL/6 mouse model of acute liver injury assessed as increase in nuclear Nrf2 level at 12.5 to 25 mg/kg, ip measured after 12 hrs by Western blot analysis; type: functional, organism-based; settings: dose 12.5-25 mg/kg
Mus musculus [10] = test: Hepatoprotective activity in APAP-induced male C57BL/6 mouse model of acute liver injury assessed as reduction in AST level in liver at 12.5 to 25 mg/kg, ip measured after 12 hrs; type: functional, organism-based; settings: dose 12.5-25 mg/kg
Mus musculus [11] = test: Hepatoprotective activity in APAP-induced male C57BL/6 mouse model of acute liver injury assessed as reduction in pathological damage in liver at 12.5 to 25 mg/kg, ip measured after 12 hrs by H and E staining based analysis; type: functional, organism-based; settings: dose 12.5-25 mg/kg
Mus musculus [12] = test: Hepatoprotective activity in APAP-induced Nrf2 knockout male C57BL/6 mouse model of acute liver injury assessed as effect on ALT level in liver at 25 mg/kg, ip preadministered with compound followed by APAP induction and measured after 12 hrs; type: functional, organism-based
[13] = target: T1, Nuclear factor erythroid 2-related factor 2 (Mus musculus); test: Activation of Nrf2 in LPS-stimulated mouse AML12 cells assessed as upregulation of GCLM mRNA expression by measuring fold change at 10 uM incubated for 16 hrs relative to sulforaphane; type: cell-based; settings: filed as activator
[14] = Cmax in Sprague-Dawley rat at 1 mg/kg, iv; type: ADME, organism-based; settings: in vivo
[15] = AUC (0 to t) last in Sprague-Dawley rat at 10 mg/kg, po; type: ADME, organism-based; settings: in vivo
[16] = target: T1, Nuclear factor erythroid 2-related factor 2 (Mus musculus); test: Activation of Nrf2 in LPS-stimulated mouse AML12 cells assessed as upregulation of HO-1 mRNA expression by measuring fold change at 10 uM incubated for 16 hrs relative to sulforaphane; type: cell-based; settings: filed as activator
Mus musculus [17] = test: Hepatoprotective activity in APAP-induced Nrf2 knockout male C57BL/6 mouse model of acute liver injury assessed as reduction in liver damage at 25 mg/kg, ip preadministered with compound followed by APAP induction and measured after 12 hrs by H and E staining based analysis; type: functional, organism-based
[18] = Tmax in Sprague-Dawley rat at 1 mg/kg, iv; type: ADME, organism-based; settings: in vivo
[19] = AUC (0 to t) last in Sprague-Dawley rat at 1 mg/kg, iv; type: ADME, organism-based; settings: in vivo
[20] = Drug concentration in plasma of APAP-induced acute liver injury male C57BL/6 mouse model at 25 mg/kg, ip pre-administered with compound for 1 hr followed by APAP induction and measured after 12 hrs by Mass spectrometric analysis; type: ADME, organism-based
[21] = Toxicity in C57BL/6J mouse assessed as histopathological change in hepatic tissue at 25 mg/kg, ip by H and E staining based analysis; type: organism-based; settings: in vivo
Mus musculus [22] = test: Hepatoprotective activity in APAP-induced male C57BL/6 mouse model of acute liver injury assessed as reduction in ALT level in liver at 12.5 to 25 mg/kg, ip measured after 12 hrs; type: functional, organism-based; settings: dose 12.5-25 mg/kg
[23] = Toxicity in C57BL/6J mouse assessed as histopathological change in splenic tissue at 25 mg/kg, ip by H and E staining based analysis; type: organism-based; settings: in vivo

COc1ccc(-c2cc(=O)c3ccc(NS(=O)(=O)c4ccc(F)cc4)cc3o2)cc1
Activity [1]: Dose-dependent-effect
Activity (Mus musculus [2]): No effect
Activity [3]: Dose-dependent-effect
Cmax [4]: 1.3 µg/mL
Activity (Mus musculus [5]): Active
Activity (Mus musculus [6]): Active
Activity (Mus musculus [7]): Dose-dependent-effect
concentration at 13 h [8]: 0.05 µg/mL
Activity (Mus musculus [9]): Active
Activity (Mus musculus [10]): Active
Activity (Mus musculus [11]): Active
Activity (Mus musculus [12]): No effect
fold change (FC) [13]: 2.3
Cmax [14]: 1.05 µg/mL
AUC(0-t) [15]: 7.69 µg·h/mL
fold change (FC) [16]: 3.4
Activity (Mus musculus [17]): inactive
Tmax [18]: 10.2 min
AUCt [19]: 3.869 µg·h/mL
concentration at 13 h [20]: 0.155 µg/mL
Activity [21]: Non-toxic
Activity (Mus musculus [22]): Active
Activity [23]: Non-toxic

Source: ChEMBL document CHEMBL6182905, “Fluorinated sulfonamide-flavonoid derivatives as novel Keap1-Nrf2 inhibitors: Potent induction of cytoprotective gene HO-1 in vivo” (Eur J Med Chem, 2025)
